Source: the NIST ThermoML archive (doi:10.1016/j.tca.2006.10.012)
± gives the expanded uncertainty stated by the source.

Details: 300 K; 101.33 kPa; Crystal; Coaxial cylinder method

[BH3-][NH3+] [ammonia borane]
thermal conductivity: 15 ± 3 W/m/K
